The values below come from patent US11708367B2, “Compounds for the treatment of kinase-dependent disorders” (Exelixis, Inc., priority 2018, dated 2023).

Each structure is given as a SMILES string.

The target of test [1] is KDR (Homo sapiens (Human), UniProt P35968). The test is described as follows: KDR autophosphorylation ELISA in HUVEC cells. The test is classed as cell-based. To be noted: cellular, VEGF165-stimulated, phospho-KDR ELISA. The gist of the method: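 Serum-starved (24 h) HUVECs were pre-treated with compound (8-point dose curve, 0.3% DMSO final) for 1 h, then stimulated with 100 ng/mL human VEGF165 for 5 min. Lysate phospho-KDR was quantified by ELISA against a phospho-KDR standard. IC50 came from a 4-parameter logistic fit, normalized to stimulated-DMSO (100%) and unstimulated (0%) controls.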
On the technique in general: In an ELISA, binding on a coated surface is turned into a signal by an enzyme label.

For test [2], the target named is Mer (Homo sapiens (Human), UniProt Q12866). Nature of the test: Human Mer kinase assay (33P radiometric, KinaseProfiler). The class given is biochemical. To be noted: 10 μM ATP.
Test [3] deals with AXL (Homo sapiens (Human), UniProt P30530). Nature of the test: AXL autophosphorylation ELISA in A-172 cells. The test is classed as cell-based. To be noted: cellular, Gas6-stimulated, phospho-AXL ELISA. The gist of the method: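 A-172 glioblastoma cells, serum-starved 24 h, got 8-point compound dilutions (0.3% DMSO) for 1 h, then 1 μg/mL human Gas6 for 15 min. Phospho-AXL in lysates was quantified by ELISA against a standard, normalized between DMSO and reference-inhibitor controls; IC50 by 4-parameter logistic fit.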

Test [4] has as its target Human Axl (Homo sapiens (Human), UniProt P30530, Q764R). The test is described as follows: Human AXL kinase assay (33P radiometric, KinaseProfiler). The test is classed as biochemical. To be noted: 10 μM ATP.

Usually IC50 stands for the concentration that inhibits the measured activity by half. High values mean weaker potency, low ones greater potency.

Chain of Human Axl (P30530 473-894 Q764R): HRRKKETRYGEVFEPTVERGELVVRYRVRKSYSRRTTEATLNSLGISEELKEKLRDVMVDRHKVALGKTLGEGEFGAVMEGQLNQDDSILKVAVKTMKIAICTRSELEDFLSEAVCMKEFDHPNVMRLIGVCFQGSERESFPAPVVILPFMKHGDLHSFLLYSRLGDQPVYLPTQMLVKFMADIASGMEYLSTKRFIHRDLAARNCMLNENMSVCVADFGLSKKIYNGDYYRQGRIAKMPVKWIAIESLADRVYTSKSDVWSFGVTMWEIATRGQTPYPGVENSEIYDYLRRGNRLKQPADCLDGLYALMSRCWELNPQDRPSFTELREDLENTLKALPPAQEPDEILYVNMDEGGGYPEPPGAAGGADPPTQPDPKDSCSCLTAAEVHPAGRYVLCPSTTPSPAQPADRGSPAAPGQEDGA
Chain of AXL (P30530 26-894): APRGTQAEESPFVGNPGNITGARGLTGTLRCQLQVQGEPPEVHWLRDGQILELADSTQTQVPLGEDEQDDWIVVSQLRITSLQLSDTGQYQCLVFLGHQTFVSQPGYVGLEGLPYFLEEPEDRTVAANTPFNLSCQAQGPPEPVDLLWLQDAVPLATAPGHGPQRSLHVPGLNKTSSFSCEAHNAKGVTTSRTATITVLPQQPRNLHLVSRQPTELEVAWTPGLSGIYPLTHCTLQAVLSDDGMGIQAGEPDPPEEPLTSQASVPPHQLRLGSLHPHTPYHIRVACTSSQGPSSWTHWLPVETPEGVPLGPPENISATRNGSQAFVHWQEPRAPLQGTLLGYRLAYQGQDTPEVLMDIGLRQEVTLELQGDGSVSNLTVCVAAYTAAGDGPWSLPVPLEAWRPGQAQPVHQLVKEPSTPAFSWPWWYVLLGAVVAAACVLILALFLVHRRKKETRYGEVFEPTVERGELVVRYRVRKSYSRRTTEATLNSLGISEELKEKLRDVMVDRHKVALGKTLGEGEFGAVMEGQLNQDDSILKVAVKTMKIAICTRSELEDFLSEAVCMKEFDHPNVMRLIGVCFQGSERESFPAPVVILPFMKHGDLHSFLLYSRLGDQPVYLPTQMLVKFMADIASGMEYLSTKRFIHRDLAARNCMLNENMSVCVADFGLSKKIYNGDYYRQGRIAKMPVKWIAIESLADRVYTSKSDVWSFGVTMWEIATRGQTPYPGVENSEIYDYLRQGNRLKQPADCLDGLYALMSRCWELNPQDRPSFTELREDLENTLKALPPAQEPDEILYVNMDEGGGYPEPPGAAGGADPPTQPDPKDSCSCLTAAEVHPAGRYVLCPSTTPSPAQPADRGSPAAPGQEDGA
Chain of KDR (P35968 20-1356): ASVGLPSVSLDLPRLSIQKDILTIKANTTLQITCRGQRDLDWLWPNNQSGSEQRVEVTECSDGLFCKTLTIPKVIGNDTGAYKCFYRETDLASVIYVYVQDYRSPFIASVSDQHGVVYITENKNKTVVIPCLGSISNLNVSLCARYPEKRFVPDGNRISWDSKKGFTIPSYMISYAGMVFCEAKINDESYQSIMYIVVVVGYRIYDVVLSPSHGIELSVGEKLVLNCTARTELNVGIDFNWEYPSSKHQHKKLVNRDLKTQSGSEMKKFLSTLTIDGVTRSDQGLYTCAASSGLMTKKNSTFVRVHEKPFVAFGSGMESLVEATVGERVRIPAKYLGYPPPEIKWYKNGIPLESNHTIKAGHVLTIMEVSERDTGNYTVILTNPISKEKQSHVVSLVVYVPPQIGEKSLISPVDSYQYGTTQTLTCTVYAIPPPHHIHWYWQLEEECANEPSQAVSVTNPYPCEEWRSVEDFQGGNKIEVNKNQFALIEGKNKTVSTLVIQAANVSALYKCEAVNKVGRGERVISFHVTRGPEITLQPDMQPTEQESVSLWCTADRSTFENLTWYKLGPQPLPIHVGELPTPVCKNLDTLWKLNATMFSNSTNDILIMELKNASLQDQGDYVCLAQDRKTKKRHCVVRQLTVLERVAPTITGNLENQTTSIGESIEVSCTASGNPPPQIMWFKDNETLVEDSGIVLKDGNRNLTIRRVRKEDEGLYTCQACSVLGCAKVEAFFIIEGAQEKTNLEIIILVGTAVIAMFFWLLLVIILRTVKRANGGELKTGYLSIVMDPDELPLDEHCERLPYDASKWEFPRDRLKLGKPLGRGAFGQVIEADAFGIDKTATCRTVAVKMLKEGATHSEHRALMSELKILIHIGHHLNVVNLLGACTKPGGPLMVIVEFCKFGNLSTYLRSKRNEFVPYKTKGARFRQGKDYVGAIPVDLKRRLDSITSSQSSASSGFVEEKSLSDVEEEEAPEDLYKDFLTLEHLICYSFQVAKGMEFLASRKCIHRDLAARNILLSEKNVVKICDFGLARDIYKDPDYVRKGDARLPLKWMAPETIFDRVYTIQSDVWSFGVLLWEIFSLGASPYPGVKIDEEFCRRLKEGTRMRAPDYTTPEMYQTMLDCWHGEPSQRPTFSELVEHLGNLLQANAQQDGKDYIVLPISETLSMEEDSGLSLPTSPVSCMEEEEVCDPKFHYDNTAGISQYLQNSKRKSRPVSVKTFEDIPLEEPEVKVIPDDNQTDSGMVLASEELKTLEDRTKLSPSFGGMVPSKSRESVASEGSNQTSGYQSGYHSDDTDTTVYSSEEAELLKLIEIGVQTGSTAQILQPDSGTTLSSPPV
Chain of Mer (Q12866 557-882): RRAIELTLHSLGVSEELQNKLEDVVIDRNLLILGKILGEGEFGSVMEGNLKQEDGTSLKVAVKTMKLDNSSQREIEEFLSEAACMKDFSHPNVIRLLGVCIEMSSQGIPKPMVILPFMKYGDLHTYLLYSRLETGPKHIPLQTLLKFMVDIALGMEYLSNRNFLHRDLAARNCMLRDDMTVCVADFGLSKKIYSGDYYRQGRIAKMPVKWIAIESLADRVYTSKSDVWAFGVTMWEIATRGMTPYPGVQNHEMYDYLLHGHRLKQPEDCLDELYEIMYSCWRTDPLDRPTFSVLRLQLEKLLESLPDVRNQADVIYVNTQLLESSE

As for `COc1cc2ncnc(Oc3ccc(NC(=O)C4(C(=O)Nc5ccc(F)cc5)CC4)cc3)c2cc1C(=O)NC[C@@H]1CCCN1` [Compound 122, 1-N′-(4-fluorophenyl)-1-N-[4-[7-methoxy-6-[[(2S)-pyrrolidin-2-yl]methyl-carbamoyl]quinazolin-4-yl]oxyphenyl]cyclopropane-1,1-dicarboxamide], the IC50 in test [1] was greater than 300 nM; in test [2], no more than 10 nM; in test [3], 10 to 100 nM; in test [4] it was no more than 10 nM.

In the case of `COc1cc2nccc(Oc3ccc(NC(=O)C4(C(=O)Nc5ccc(F)cc5)CC4)cc3)c2nc1OC` [Compound 139, 1-N-[4-[(6,7-dimethoxy-1,5-naphthyridin-4-yl)oxy]phenyl]-1-N′-(4-fluorophenyl)cyclo-propane-1,1-dicarboxamide], the IC50 in test [1], in test [2], in test [3] and in test [4] was no more than 10 nM in each case.

For `COc1cc2nccc(Oc3ccc(NC(=O)C4(C(=O)Nc5ccc(F)cc5)CC4)cc3F)c2nc1OC` [Compound 140, 1-N′-[4-[(6,7-dimethoxy-1,5-naphthyridin-4-yl)oxy]-3-fluorophenyl]-1-N-(4-fluorophenyl)cyclopropane-1,1-dicarboxamide], the half-maximal inhibitory concentration (IC50) in test [1], in test [2], in test [3] and in test [4] was no more than 10 nM throughout.

`COc1cc2nccc(Oc3ccc(NC(=O)C4(C(=O)Nc5ccc(F)cc5)CC4)cc3Cl)c2nc1OC` [Compound 141, 1-N′-[3-chloro-4-[(6,7-dimethoxy-1,5-naphthyridin-4-yl)oxy]phenyl]-1-N-(4-fluorophenyl)cyclo-propane-1,1-dicarboxamide]: the half-maximal inhibitory concentration (IC50) is no more than 10 nM in test [1], no more than 10 nM in test [2], 10 to 100 nM in test [3] and 10 to 100 nM in test [4].
